In ChEMBL document CHEMBL5608172, “Structural modification strategies of triazoles in anticancer drug development” (Eur J Med Chem, 2024):

Experiments:
Detroit 562 = assay: Antiproliferative activity against human Detroit 562 cells; type: functional, cell-based
MCF7 [1] = assay: Antiproliferative activity against human MCF7 cells assessed as inhibition of cell growth measured after 72 hrs by MTT assay; type: functional, cell-based; conditions: MCF7, 72 h
MCF7 [2] = assay: Anticancer activity against human MCF7 cells; type: functional, cell-based
[3] = Antiproliferative activity against human WS1 cells assessed as reduction in cell viability incubated for 48 hrs by MTT assay; type: toxicity, cell-based
A549 [4] = assay: Antiproliferative activity against human A549 cells assessed as reduction in cell viability incubated for 48 hrs by MTT assay; type: toxicity, cell-based; conditions: A549, 48 h
PC-3 [5] = assay: Cytotoxicity against human PC-3 cells assessed as reduction in cell growth incubated for 48 hrs by MTT assay; type: functional, cell-based; conditions: PC-3, 48 h
A549 [6] = assay: Antiproliferative activity against human A549 cells assessed as reduction in cell growth incubated for 72 hrs by MTT assay; type: functional, cell-based; conditions: A549, 72 h
Fibroblast = assay: Antiproliferative activity against human Fibroblast cells; type: functional, cell-based
SCC-25 = assay: Antiproliferative activity against human SCC-25 cells; type: functional, cell-based
HepG2 [7] = assay: Antiproliferative activity against human HepG2 cells assessed as inhibition of cell growth measured after 72 hrs by MTT assay; type: functional, cell-based; conditions: HepG2, 72 h
HL-60 = assay: Antiproliferative activity against human HL-60 cells; type: functional, cell-based
U-937 = assay: Antiproliferative activity against human U-937 cells; type: functional, cell-based
BT-474 = assay: Antiproliferative activity against human BT-474 cells assessed as inhibition of cell growth measured after 72 hrs by MTT assay; type: functional, cell-based; conditions: BT-474, 72 h
PC-3 [8] = assay: Antiproliferative activity against human PC-3 cells assessed as reduction in cell viability incubated for 72 hrs by MTT assay; type: functional, cell-based; conditions: PC-3, 72 h
K562 [9] = assay: Antiproliferative activity against human K562 cells assessed as reduction in cell viability incubated for 72 hrs by MTT assay; type: functional, cell-based; conditions: K562, 72 h
MCF7 [10] = assay: Anticancer activity against human MCF7 cells assessed as reduction in cell viability incubated for 48 hrs by MTT assay; type: functional, cell-based; conditions: MCF7, 48 h
HCT-116 = assay: Anticancer activity against human HCT-116 cells assessed as reduction in cell viability incubated for 48 hrs by MTT assay; type: functional, cell-based; conditions: HCT-116, 48 h
MCF7 [11] = assay: Antiproliferative activity against human MCF7 cells assessed as reduction in cell viability incubated for 24 hrs by SRB assay; type: functional, cell-based; conditions: MCF7, 24 h
SGC-7901 = assay: Antiproliferative activity against human SGC-7901 cells; type: functional, cell-based
HT-29 = assay: Cytotoxicity against human HT-29 cells assessed as reduction in cell viability incubated for 48 hrs by MTT assay; type: functional, cell-based; conditions: HT-29, 48 h
HepG2 [12] = assay: Cytotoxicity against human HepG2 cells assessed as reduction in cell viability incubated for 48 hrs by MTT assay; type: functional, cell-based; conditions: HepG2, 48 h
CCRF-CEM = assay: Antiproliferative activity against human CCRF-CEM cells; type: functional, cell-based
NCI-H1975 = assay: Antiproliferative activity against human NCI-H1975 cells assessed as reduction in cell growth incubated for 72 hrs by cell-titer glo assay; type: functional, cell-based; conditions: NCI-H1975, 72 h
NCI-H1650 = assay: Antiproliferative activity against human NCI-H1650 cells assessed as reduction in cell growth incubated for 72 hrs by cell-titer glo assay; type: functional, cell-based; conditions: NCI-H1650, 72 h
K562 [13] = assay: Cytotoxicity against human K562 cells assessed as reduction in cell growth incubated for 72 hrs by MTT assay; type: functional, cell-based; conditions: K562, 72 h
PC-3 [14] = assay: Cytotoxicity against human PC-3 cells assessed as reduction in cell growth incubated for 72 hrs by MTT assay; type: functional, cell-based; conditions: PC-3, 72 h
MCF7 [15] = assay: Cytotoxicity against human MCF7 cells assessed as reduction in cell growth incubated for 72 hrs by MTT assay; type: functional, cell-based; conditions: MCF7, 72 h
[16] = Cytotoxicity against hTERT Lung Fibroblast cells assessed as reduction in cell growth incubated for 72 hrs by MTT assay; type: toxicity, cell-based; conditions: human

SMILES: COCCOc1cc2ncnc(Nc3cccc(-c4cn(-c5ccccc5/C=C/C(=O)c5cc(OC)c(OC)c(OC)c5)nn4)c3)c2cc1OCCOC
- IC50 (Detroit 562): 0.673 µM

SMILES: COc1cc([N+](=O)[O-])ccc1-n1cc(CN2C(=O)S/C(=C\c3cn(-c4ccccc4)nc3-c3ccccc3)C2=O)nn1
- IC50 (MCF7 [1]): 0.43 µM

SMILES: Cc1cc(=O)oc2cc(-n3cc(-c4cccc(-c5cn(-c6ccc7c(C)cc(=O)oc7c6)nn5)c4)nn3)ccc12
- IC50 (MCF7 [2]): 0.3 µM

SMILES: Cc1ccc(-n2ncc(CN3C(=O)C(F)(F)c4cc(Br)ccc43)n2)cc1Nc1nccc(-c2cccnc2)n1
- IC50 at 48 h [3]: 18.6 µM
- IC50 (A549 [4]): 7.3 µM

SMILES: NC(=S)N/N=C1/C(=O)N(Cc2cn(CC(=O)c3ccc(Br)cc3)nn2)c2ccccc21
- IC50 (PC-3 [5]): 15.3 µM

SMILES: COc1ccc2c(-n3cc(-c4cc(OC)c(OC)c(OC)c4)nn3)c(C(=O)Nc3ccccc3)oc2c1
- IC50 (A549 [6]): 0.57 µM

SMILES: CC(C)CCC1=C(OCc2cn(-c3cccc(Cl)c3)nn2)C(=O)c2ccccc2C1=O
- IC50 (Fibroblast): 210 µM
- IC50 (SCC-25): 9.81 µM

SMILES: Cc1ccc(/N=N/c2sc(N/N=C/c3cn(-c4ccccc4)nc3-c3nnn(-c4ccc(Br)cc4)c3C)nc2C)cc1
- IC50 (HepG2 [7]): 2.3 µM

SMILES: Nc1ccc(-c2nnc(Sc3nc4ccccc4n4c(Nc5ccccc5)nnc34)o2)cc1
- IC50 (HL-60): 2.72 µM
- IC50 (U-937): 2.65 µM

SMILES: COc1ccc(Cn2cc(Cn3c(=O)c(-c4nc5ccccc5[nH]4)cc4ccccc43)nn2)c(OC)c1OC
- IC50 (BT-474): 0.59 µM

SMILES: O=C1C(=O)c2cc(Cn3cc(-c4ccccc4)nn3)oc2-c2ccccc21
- IC50 (PC-3 [8]): 1.4 µM
- IC50 (K562 [9]): 1.3 µM

SMILES: CN(C)c1ccc(/C=N/c2nnc(S[C@@H]3O[C@H](CO)[C@@H](O)[C@H](O)[C@H]3O)s2)cc1
- IC50 (MCF7 [10]): 17.3 µM
- IC50 (HCT-116): 12.1 µM

SMILES: CC(=O)OC[C@H]1OC(n2cc(COc3cccc4cccnc34)nn2)[C@@H](OC(C)=O)[C@H](OC(C)=O)[C@H]1OC(C)=O (some centres undefined)
- IC50 (MCF7 [11]): 4.12 µM

SMILES: CC1(C)CC[C@]23CC[C@]4(C)[C@H](CC[C@@H]5[C@@]6(C)Cc7nnn(CCCCC[P+](c8ccccc8)(c8ccccc8)c8ccccc8)c7C(C)(C)[C@@H]6CC[C@]54C)[C@H]2[C@H]1OC3
- IC50 (SGC-7901): 1.05 µM

SMILES: O=c1oc2ccccc2c(O)c1Sc1nnc(-c2ccc(Cl)cc2)o1
- IC50 (HT-29): 18.6 µM
- IC50 (HepG2 [12]): 3.46 µM

SMILES: CN(C)c1ccc(/C=N/c2nnc(S[C@@H]3O[C@H](CO)[C@H](O)[C@H](O)[C@H]3O)s2)cc1
- IC50 (MCF7 [10]): 21.7 µM
- IC50 (HCT-116): 14.4 µM

SMILES: CC1(C)CC[C@]23CC[C@]4(C)[C@H](CC[C@@H]5[C@@]6(C)CC[C@H](O)C(C)(C)[C@@H]6CC[C@]54C)[C@H]2[C@H]1OC3 [ALLOBETULIN]
- IC50 (SGC-7901): 52.2 µM

SMILES: COc1ccc(/C=C\c2cc(OC)c(OC)c(OC)c2)cc1O [COMBRETASTATIN A4]
- IC50 (A549 [6]): 0.04 µM

SMILES: COc1cc(/C=C/C(=O)CC(=O)/C=C/c2ccc(O)c(OC)c2)ccc1O [CURCUMIN]
- IC50 (CCRF-CEM): 10.5 µM

SMILES: C#Cc1cccc(Nc2ncnc3cc(OCCOC)c(OCCOC)cc23)c1 [ERLOTINIB]
- IC50 (NCI-H1975): 37 µM
- IC50 (NCI-H1650): 40 µM

SMILES: Cc1ccc(NC(=O)c2ccc(CN3CCN(C)CC3)cc2)cc1Nc1nccc(-c2cccnc2)n1 [IMATINIB]
- IC50 at 48 h [3]: 9.6 µM
- IC50 (A549 [4]): 65 µM

SMILES: Cc1coc2c1C(=O)C(=O)c1c-2ccc2c1CCCC2(C)C [TANSHINONE IIA]
- IC50 (K562 [13]): 4.6 µM
- IC50 (PC-3 [14]): 3.2 µM

SMILES: C[C@H]1[C@H](C)CC[C@]2(C(=O)O)CC[C@]3(C)C(=CC[C@@H]4[C@@]5(C)CC[C@H](O)C(C)(C)[C@@H]5CC[C@]43C)[C@H]12 [URSOLIC ACID]
- IC50 (MCF7 [15]): 25.1 µM
- IC50 at 72 h [16]: 90.9 µM
